Patent US12161632B2, “Compositions and methods of treating cardiac fibrosis with ifetroban” (Cumberland Pharmaceuticals Inc., priority 2014, dated 2024)
Entries after “also recorded” stand apart in the source; their conditions may differ. Where two headings read alike, the source gives them in different places.

Legend:
[1] = tested on: pulmonary artery banding (PAB) model of right ventricular pressure overload; assay: PAB model of right ventricular pressure overload: hemodynamics, echocardiography, histology (Example VII); type: in vivo; conditions: PAB mice; for RV fibrosis / fibrotic area (Masson's trichrome): ifetroban 25 mg/kg/day in drinking water; for cardiomyocyte diameter / cellular hypertrophy: ifetroban 25 mg/kg/day
Method: Both male and female age-matched C57Bl/6 or FVB/NJ mice, obtained by in-house breeding, were used for pulmonary artery banding. LysM-GFP mice were obtained by cross-breeding LysM-Cre×mTomato/GFP reporter mice B6.129P2-Lyz2tm1(cre)Ifo/J (a gift from Tim Blackwell)×Gt(ROSA)26Sortm4(ACTB-tdTomato, -EGFP)Luo (JAX stock #007676). The day following surgery, mice were given either 25 mg/kg/day IFETROBAN (Cumberland Pharmaceuticals Inc., Nashville, TN) in drinking water or normal drinking water (vehicle) for 2 weeks or 6 weeks prior to hemodynamic evaluation. Mice were weighed and water was changed once a week.
An RVSP of 30 mmHg was used to define PAH, and only samples from mice at or above this threshold were used for analysis of PAB groups. […] Two weeks after PAB, fibrosis in the RV of untreated mice has increased from <5% to […] (blue stain) in histologic sections of frozen RV stained with Masson's trichrome.
In the previous experiments, there was an increase in RV mass but not yet any change in cardiac output or other functional parameters, apart from E/A wave ratio, following PAB. To determine whether the decrease in fibrosis seen with TP receptor antagonism leads to increased preservation of cardiac function, the period following PAB-induced pressure overload was extended to 6 weeks and dosing with ifetroban was continued to 6 weeks, as well. […] This was associated with a decreased ejection fraction and decreased fractional shortening, signs of cardiac failure. All of these were prevented in PAB mice that received ifetroban, despite similar RVSP. Mice underwent sham surgery or PAB and echocardiography and pressure-loop catheterization performed after 6 weeks. End diastolic and systolic volume of the left ventricle were measured using the average of values calculated using both spherical and cylindrical models. Also obtained from echocardiography were the left ventricular stroke volume and ejection fraction, as well as percent fractional shortening.

RV gene expression [2] = assay: RV RNA expression arrays in PAB/sham mice (Example V); type: in vivo; conditions: 30 mg/kg/day, 14 days
Method: Following sacrifice, right ventricular hypertrophy was assessed in each animal as a percentage of heart weight. A random fraction of the right hearts were fixed in formalin for histology and examined for indices of fibrosis; other hearts were snap frozen for gene expression analysis via RNA microarray. Right hearts and lungs were collected for analysis of protein expression and gene expression array. Left lungs were fixed and stained. Platelet deposition was examined in small pulmonary artery vessels. The remaining organs were harvested and frozen in liquid nitrogen for potential gene expression analysis.
As part of this study, RNA extracted and expression analysis was performed using Mouse Genone 2.0 Affymetrix expression arrays. (FIG. 4C). The Array design was 2×2×2: Sham/Banded×Vehicle/Ifetroban×M/F. In total, there were 8 arrays; each array was a pool of RV from 3 mice. Only mice with an RVSP>30 were used for the banded groups. Banding itself altered 199 genes (ABS (Diff in averages)—Sum of standard deviations)>0.4 comparing vehicle banded to sham, and expression of 49 of those genes was enhanced by ifetroban (difference >0.4) and expression of 29 of those genes was attenuated by ifetroban (difference >0.4). […] Res., 2011 Jul. […] 15; 45(4):511-8.

[3] = tested on: right ventricle gene expression; assay: Right ventricle gene expression, Affymetrix Mouse Gene 2.0 arrays (Example IV); type: in vivo, mice; conditions: banded mice, 25 mg/kg/day, 2 weeks
Method: FVB/N mice or mice with a GFP macrophage-specific lineage tracing marker (LysM-Cre) underwent pulmonary banding to directly increase load stress (or sham surgery for controls), and starting the following day received either vehicle or the thromboxane receptor antagonist Ifetroban sodium in their drinking water (25 mg/kg/day). After 2 weeks, noninvasive hemodynamics were obtained by transthoracic echocardiography and invasive hemodynamics were obtained by pressure-volume catheterization of the right heart prior to sacrifice. Hearts were assessed for fibrosis and macrophage infiltration. RNA from right ventricles were isolated and used for unbiased discovery of altered gene expression using Affymetrix Mouse Gene 2.0 arrays performed on four groups (banded or sham). LysM-Cre mouse hearts were flash-frozen whole, cross-sectioned, and assessed by microscopy for fibrosis and macrophage infiltration. Differences between groups were assessed by ANOVA and t-tests. Correlations were assessed by Spearman correlation.

RV gene expression [4] = assay: Gene expression arrays on pooled RV from sham or PAB mice (Example VII); type: in vivo
Excerpt: To determine the mechanism through which ifetroban reduced fibrosis and protected RV contractility, we performed gene expression arrays on sets of pooled RV from mice with sham or PAB surgery, with and without drug treatment. By principal components analysis strong effect of banding was found, and an effect of ifetroban only in mice that had undergone banding. […] In particular, there were changes in gene expression associated with adhesion, collagen organization, extracellular structure, and developmental processes.

[5] = tested on: RV proteins (TP receptor, MHC, phospho-SMAD2/3, TSP-4); conditions: for TSP-4 protein expression in RV: high dose 25 mg/kg/day
Method: Mice underwent pulmonary arterial banding (PAB) or sham surgery, and were treated for 2 weeks with vehicle or ifetroban (competitive antagonist of TPα/TPβ) in the drinking water.
The effect of ifetroban treatment on known fibrotic and anti-fibrotic signaling pathways was examined.
In another arm of this example, low dose (3 mg/kg/day) ifetroban was administered to mice via the drinking water for 2 weeks following pulmonary artery banding.

[6] = PAB mice, 25 mg/kg/day, 2 weeks
[7] = only in the context of pressure overload

## CCCCCNC(=O)c1coc([C@H]2[C@@H](Cc3ccccc3CCC(=O)O)[C@@H]3CC[C@H]2O3)n1 [ifetroban, [1S-(1α,2α,3α,4α)]-2-[[3-[4-[(Pentylamino)carbonyl]-2-oxazolyl]-7-oxabicyclo[2.2.1]hept-2-yl]methyl]-benzenepropanoic acid]
[1]; 25 mg/kg/day, 2 weeks
  RV mass (ratio of right ventricular weight to left ventricle+septum weight): similarly increased in vehicle- and ifetroban-treated PAB groups; also recorded: not blocked
[1]; 25 mg/kg/day, 2 weeks, p<0.05 by ANOVA
  tricuspid E/A wave ratio (echocardiography): increased; also recorded: improved
[1]; 25 mg/kg/day, 2 weeks, listed as Ifetroban
  RV mass (ratio of right ventricular weight to left ventricle+septum weight): allowing increased RV mass
[1]; 25 mg/kg/day, 6 weeks
  signs of cardiac failure (left ventricular dilation, increased stroke volume, decreased ejection fraction and fractional shortening): more functional adaptation and decreased indications of cardiac failure; also recorded: prevented
[1]; 2 weeks
  RV fibrosis / fibrotic area (Masson's trichrome): almost completely abolished
  cardiomyocyte diameter / cellular hypertrophy: blocked
[1]; 2 weeks, listed as Ifetroban
  RV fibrosis / fibrotic area (Masson's trichrome): near normalization of fibrotic area
  cardiomyocyte diameter / cellular hypertrophy: prevented cellular hypertrophy
[1]; 2 weeks, listed as ifetrobn
  RV fibrosis / fibrotic area (Masson's trichrome): antifibrotic effect
[1]; ifetroban, two weeks following PAB
  protection against pressure overload: protected against pressure overload
RV gene expression [2]; banded RV pools
  number of the 199 banding-altered genes whose expression was attenuated (difference >0.4): 29 genes
  number of the 199 banding-altered genes whose expression was enhanced (difference >0.4): 49 genes
RV gene expression [2]; banded RV
  expression of FBX032: reduces the expression of FBX032
  expression of Nmrk2, Meox1, Nkd2, and Pkhd1: enhances the expression of other genes
  expression of PDGF: reduces the expression of PDGF
  expression of genes involved with inhibition of TGF-Beta, Asporin and Ltbp2: enhanced the expression
  expression of genes related to collagen and cell-cell adhesion, particularly thrombospondin-4 (Thbs4): enhances the expression
RV gene expression [2]; banded mice
  expression of pro-fibrotic and inflammatory genes: decreases expression
  expression of pro-muscularization genes: increases expression
[3]
  anti-fibrotic pathways (THBS4, Asporin, LTBP2), expression arrays: induction of anti-fibrotic pathways including THBS4 and TGF-beta inhibitors Asporin and LTBP2
  pathways related to functional hypertrophy, expression arrays: induction of pathways related to functional hypertrophy
  pro-fibrotic pathways (PDGF-D, FBXO32), expression arrays: reduction of pro-fibrotic pathways such as PDGF-D and FBXO32
RV gene expression [4]; 25 mg/kg/day, 2 weeks
  principal components analysis of RV gene expression: strong effect of ifetroban only in mice with banding
RV gene expression [4]; PAB RV only
  Thbs4 expression (mRNA): strongly enhances
RV gene expression [4]; PAB mice
  expression of antifibrotic genes: increased expression
  expression of genes associated with fibrosis: reduced expression
RV gene expression [4]; PAB mice versus banded controls
  expression of genes associated with myogenic differentiation: enhanced
RV gene expression [4]; [6]
  RV expression of Cd14, Tlr8 and other pro-inflammatory genes: decreased RV expression
RV gene expression [4]; [7]
  expression of genes associated with inflammatory cell recruitment: reduced expression
  genes associated with adaptive remodeling: ifetroban-induced genes associated with adaptive remodeling
RV gene expression [4]; sham, 25 mg/kg/day, 2 weeks
  gene expression in mice with only sham surgeries: did not significantly change gene expression
[5]; 2 weeks following PAB or drug treatment
  TP receptor expression in the RV (Western blot): remained constant
[5]; PAB mice versus vehicle-treated mice
  phospho-SMAD2/3 associated with PAB: less phospho-SMAD2/3
[5]; PAB mice, 25 mg/kg/day
  localization of TSP-4 in RV: increased cardiomyocyte expression of TSP-4
[5]; [6]
  α-MHC protein expression in RV (Western blot): no change in α-MHC expression
  β-MHC protein expression in RV (Western blot): strongly induced
[5]; PAB mice, 2 weeks
  induction of the pro-fibrotic TGF-beta pathway: blocked induction
[5]; PAB mice, 2 weeks, 25 mg/kg/day
  TSP-4 protein expression in RV: increased TSP-4 protein; also recorded: increases the expression of antifibrotic TSP-4
[5]; PAB mice, 2 weeks, listed as Ifetroban, 25 mg/kg/day
  TSP-4 protein expression in RV: increased expression of anti-fibrotic thrombospondin-4
[5]; PAB mice, low dose 3 mg/kg/day, 2 weeks
  TSP-4 expression in RV (Western blot densitometry): does not
